Laboratory results taken from patent US10633386B2, “BET protein degraders” (THE REGENTS OF THE UNIVERSITY OF MICHIGAN, priority 2016, dated 2020).

Columns and labels:
[1] = system: TNBC cell lines; assay: Combination growth inhibition with BCL-2/BCL-XL inhibitors (Bliss independence model); assay type: cell-based; conditions: 6 of the 7 TNBC cell lines tested (data not shown)
Procedure: MCL1 and BCL-XL are important but independent determinants of cell survival in TNBC (Goodwin et al., Cell Death Differ 22:2098-106 (2015); Xiao et al., Mol. Cancer Ther. 14:1837-47 (2015); Petrocca et al., Cancer Cell 24:182-96 (2013)). A panel of TNBC cell lines were treated with Cpd. No. 4 in combination with BCL-2 and/or BCL-XL inhibitors, and the excess growth inhibition was computed over the Bliss independence model for each combination pairs (Berenbaum, Adv. Cancer Res., 35:269-335 (1981)). ABT-263 (Tse et al., Cancer Res. 68:3421-8 (2008)) and BM-1197 (Bai et al., PLoS One 2014; 9(6):e99404 doi 10.1371/journal.pone.0099404) were selected as dual BCL-2/BCL-XL inhibitors, […] as a selective BCL-XL inhibitor (Tao et al., ASC Med. Chem. Lett. 5:1088-93 (2014)) and ABT-199 as a selective BCL-2 inhibitor (Souers et al., Nat. Med. 19:202-8 (2013)).

[2] = system: TNBC cell lines; assay: Combination apoptosis induction (immunoblotting and/or Annexin-PI staining); assay type: cell-based; conditions: for effect on Cpd. No. 4-induced apoptosis: MDA-MB-468, 250 nM with Cpd. No. 4 50 nM (FIG. 14)
Procedure: Immunoblotting and/or Annexin-PI staining confirmed that BM-1197 (250 nM), ABT-263 (250 nM), and A-1155463 (250 nM) potentiated Cpd. No. 4-induced apoptosis (50 nM) in MDA-MB-468 (FIG. 14) and other TNBC cell lines (data not shown). Synergistic induction of apoptosis by Cpd. […] No. 4-induced apoptosis in these cell lines. […] A with either BM-1197 (FIGS. 15 and 16) or ABT-263 (data not shown). […] No. 4 and BM-1197 was also detected in additional TNBC cell lines responsive to Cpd. No. 4-induced apoptosis (BT-20 and MDA-MB-157) (data not shown), further supporting that BCL-XL inhibitors potentiate Cpd. No. 4-induced apoptosis in TNBC.

[3] = system: MDA-MB-231; assay: Cell growth inhibition (CellTiter-Glo), MDA-MB-231; assay type: cell-based, human; conditions: Homo sapiens, MDA-MB-231, 96 h, MDA-MB-231 cells, 4 days
Procedure: (§1) Cell growth inhibitory activity of representative BET bromodomain degraders was determined using CellTiter-Glo® Luminescent Cell Viability Assay. Cells were seeded in 384-well white opaque cell culture plates at a density of 2,000 cells/well with serially diluted compounds and incubated at 37° C. in an atmosphere of 95% air and 5% CO2 for 4 days. Cell viability was determined using the CellTiter-Glo® Luminescent Cell Viability Assay Kit (Promega, Madison, Wis.) according to the manufacture's instruction. Briefly, a volume of CellTiter-Glo® Reagent equal to the volume of cell culture medium was added to each well, and then the plates were incubated at room temperature for 10-20 minutes. The luminescent signal was measured using a Tecan Infinite M1000 multimode microplate reader (Tecan, Morrisville, N.C.). The half maximal inhibitory concentration (IC50) was calculated using the GraphPad Prism 5 software (GraphPad Software, La Jolla, Calif.).

[4] = system: MOLM-13; assay: Cell growth inhibition (CellTiter-Glo), MOLM-13; assay type: cell-based; conditions: Homo sapiens, MOLM-13, 96 h, MOLM-13 cells, 4 days
Procedure: as §1

[5] = system: MDA-MB-231 xenograft; assay: In vivo antitumor activity in MDA-MB-231 xenograft model (Example 25); set-up: species or system SCID mice
Procedure: (§2) For the in vivo efficacy experiments of this example, when tumors reached 80-200 mm^3, SCID mice were randomized into groups. Cpd. A, Cpd. No. 4, Cpd. No. 6, or vehicle control (10% PEG400: 3% Cremophor: 87% PBS, or 2% TPGS:98% PEG200) was given at the dose and duration indicated. Tumor sizes and animal weights were measured 2-3 times per week. Tumor volume (mm^3)=(length×width^2)/2. Tumor growth inhibition was calculated as TGI (%)=(Vc−Vt)/(Vc−Vo)*100, where Vc, Vt are the median of control and treated groups at the end of the study and Vo at the start. All the in vivo studies were performed under an animal protocol approved by the University Committee on Use and Care of Animals of the University of Michigan, in accordance with the recommendations in the Guide for the Care and Use of Laboratory Animals of the National Institutes of Health.
(§3) No. 4 was determined in xenograft tumor models of TNBC cell lines.

[6] = system: MDA-MB-468 xenograft; assay: In vivo antitumor activity in MDA-MB-468 xenograft model; set-up: species or system SCID mice
Procedure: as §2, §3

## CC1(C)CCC(c2ccc(Cl)cc2)=C(CN2CCN(c3ccc(C(=O)NS(=O)(=O)c4ccc(N[C@H](CCN5CCOCC5)CSc5ccccc5)c(S(=O)(=O)C(F)(F)F)c4)cc3)CC2)C1 [ABT-263]
[1]
  synergy with Cpd. No. 4 (excess growth inhibition over Bliss independence model): Modest to strong synergy
[2]
  effect on Cpd. No. 4-induced apoptosis: potentiated

## Cc1c(S(C)(=O)=O)c(-c2cc(F)cc(N3CCN(c4ccc(NS(=O)(=O)c5ccc(N[C@H](CCN6CCC(O)CC6)CSc6ccccc6)c(S(=O)(=O)C(F)(F)F)c5)cc4)CC3)c2)c(-c2ccc(Cl)cc2)n1C(C)C [BM-1197]
[1]
  synergy with Cpd. No. 4 (excess growth inhibition over Bliss independence model): Modest to strong synergy
[2]; BT-20 and MDA-MB-157 (data not shown)
  apoptosis induction by the combination of Cpd. No. 4 and BM-1197: synergistic apoptosis induction
[2]; MDA-MB-213 cells (FIG. 15)
  effect on apoptosis induction by Cpd. No. 4: enhances apoptosis induction by Cpd. No. 4
[2]; MDA-MB-453 cells (FIG. 16)
  effect on apoptosis induction by Cpd. No. 4: enhances apoptosis induction by Cpd. No. 4
[2]
  effect on Cpd. No. 4-induced apoptosis: potentiated

## CCn1nc(C2CC2)cc1Nc1nc(C(=O)NCCCCCc2cccc3c2CN(C2CCC(=O)NC2=O)C3=O)nc2[nH]c3cc(-c4c(C)noc4C)c(OC)cc3c12 (centres unmarked) [Cpd. No. 6]
[3]
  IC50: 1 nM
[4]
  IC50: < 0.8 nM
[5]; MDA-MB-231 xenograft model in mice (FIG. 10)
  tumor growth: reduce tumor growth
[5]; MDA-MB-231 xenograft model, 5 mg/kg, IV, 3 times per week for 3 weeks
  antitumor activity relative to Cpd. A at 50 mg/kg, daily oral dosing, 5 days a week for 3 weeks: comparable to or stronger than that of Cpd. A
[5]; MDA-MB-231 xenograft model, 5 mg/kg, IV, 3 times per week for 3 weeks (FIG. 10)
  antitumor activity: exerted antitumor activity
[6]; MDA-MB-468 xenograft model in mice (FIG. 11)
  tumor growth: reduce tumor growth
[6]; MDA-MB-468 xenograft model, 5 mg/kg, IV, 3 times per week for 3 weeks
  antitumor activity relative to Cpd. A at 50 mg/kg, daily oral dosing, 5 days a week for 3 weeks: comparable to or stronger than that of Cpd. A
[6]; MDA-MB-468 xenograft model, 5 mg/kg, IV, 3 times per week for 3 weeks (FIG. 11)
  antitumor activity: exerted antitumor activity

## CN(C)CC#Cc1ccc(OCCCc2sc(N3CCc4cccc(C(=O)Nc5nc6ccccc6s5)c4C3)nc2C(=O)O)c(F)c1 [A-1155463]
[1]
  synergy with Cpd. No. 4 (excess growth inhibition over Bliss independence model): Modest to strong synergy
[2]
  effect on Cpd. No. 4-induced apoptosis: potentiated
